# Source: paper PMC4104496 (Clinical cancer research : an official journal of the …, 2012)
# Read-outs that look alike come from different tables or passages of the source.
# How the values were obtained:
# [1] = for Cmax/dose / Tmax: iv
# [2] = clinical; conditions: human, in vivo, iv
SMILES,"AUC/dose ([1]; human, in vivo)","CL or CL/F ([1]; human, in vivo)","T1/2 (terminal elimination half-life) ([1]; human, in vivo)","Cmax/dose ([1]; human, in vivo)","Tmax ([1]; human, in vivo)",V or V/F ([1]; in vivo) [L/m^2],trough concentrations ([1]; in vivo),also measured
"CCc1c2c(nc3ccc(OC(=O)N4CCC(NCCCCC(=O)O)CC4)cc13)-c1cc3c(c(=O)n1C2)COC(=O)C3(O)CC (stereo not drawn) [APC, 7-ethyl-10-(4-N-(5-aminopentanoic acid)-1-piperidine)carbonyloxycamptothecin]",13 (73) h*ng/mL/mg/m^2,96 (49) L/h/m^2,58 (8) d,0.08 (118) ng/mL/mg/m^2,20 (41) h,170,detectable,"terminal disposition half-life ([1]; human, in vivo): 53 days"
"CCc1c2c(nc3ccc(OC(=O)N4CCC(N)CC4)cc13)-c1cc3c(c(=O)n1C2)COC(=O)[C@]3(O)CC [NPC, 7-ethyl-10-(4-amino-1-piperidino) carbonyloxycamptothecin]",–,–,–,–,–,–,–,plasma concentrations ([1]; in vivo): near the limit of quantitation
"CCc1c2c(nc3ccc(O[C@@H]4O[C@H](C(=O)O)[C@@H](O)[C@H](O)[C@H]4O)cc13)-c1cc3c(c(=O)n1C2)COC(=O)[C@]3(O)CC [SN-38-G, SN-38-glucuronide]",–,–,–,–,–,–,–,"T1/2 (terminal elimination half-life) ([1]; Mean (%CV), plasma, 76 patients, after etirinotecan pegol 58 to 245 mg/m^2): 61 (37) d; trough concentrations ([1]; after etirinotecan pegol dosing with all 3 schedules): detectable; terminal disposition half-life ([1]; plasma, patients, after etirinotecan pegol administration): 61 days"
CCc1c2c(nc3ccc(O)cc13)-c1cc3c(c(=O)n1C2)COC(=O)[C@]3(O)CC [SN-38],8 (52) h*ng/mL/mg/m^2,170 (59) L/h/m^2,50 (28) d,0.02 (55) ng/mL/mg/m^2,13 (170) h,27,detectable,–
"CCc1c2c(nc3ccc(OC(=O)N4CCC(N5CCCCC5)CC4)cc13)-c1cc3c(c(=O)n1C2)COC(=O)[C@]3(O)CC [irinotecan, reference compound]",–,–,–,–,–,–,detectable,Tmax [2]: 0.167 days
